Laboratory results as given in ChEMBL document CHEMBL4177703, “The discovery and optimization of naphthalene-linked P2-P4 Macrocycles as inhibitors of HCV NS3 protease” (Bioorg Med Chem Lett, 2018).

Assays:
[1] = Half life in human liver microsomes in presence of NADPH; format: ADME, microsome
[2] = Cardiotoxicity in Langendorff perfused rabbit heart assessed as change in sinus node recovery time at 10 uM measured over 20 mins by electrocardiography (reference value: 0%); format: toxicity, tissue-based, Oryctolagus cuniculus
[3] = AUC in Sprague-Dawley rat at 5 mg/kg, iv after 24 hrs; format: ADME, organism-based; set-up: dose 5 mg/kg, time < 24 hr, route intravenous; conditions: in vivo
[4] = Cardiotoxicity in Langendorff perfused rabbit heart assessed as change in heart rate at 10 uM measured over 10 mins by electrocardiography (reference value: 0%); format: toxicity, tissue-based, Oryctolagus cuniculus
[5] = Cardiotoxicity in Langendorff perfused rabbit heart assessed as change in coronary flow at 10 uM measured over 10 mins by electrocardiography (reference value: 0%); format: toxicity, tissue-based, Oryctolagus cuniculus
[6] = Half life in Sprague-Dawley rat at 5 mg/kg, iv after 24 hrs; format: ADME, organism-based; conditions: in vivo
[7] = Cardiotoxicity in Langendorff perfused rabbit heart assessed as change in QT interval at 10 uM measured over 30 mins by electrocardiography (reference value: 0%); format: toxicity, tissue-based, Oryctolagus cuniculus; conditions: 0.5 h
[8] = Drug concentration in Sprague-Dawley rat liver at 5 mg/kg, iv after 24 hrs; format: ADME, organism-based; conditions: read-out: Drug uptake
[9] = Cardiotoxicity in Langendorff perfused rabbit heart assessed as change in QT interval at 10 uM measured over 20 mins by electrocardiography (reference value: 0%); format: toxicity, tissue-based, Oryctolagus cuniculus
[10] = Cardiotoxicity in Langendorff perfused rabbit heart assessed as change in coronary flow at 10 uM measured over 20 mins by electrocardiography (reference value: 0%); format: toxicity, tissue-based, Oryctolagus cuniculus
[11] = Cardiotoxicity in Langendorff perfused rabbit heart assessed as change in PR interval at 10 uM measured over 20 mins by electrocardiography (reference value: 0%); format: toxicity, tissue-based, Oryctolagus cuniculus
[12] = Cardiotoxicity in Langendorff perfused rabbit heart assessed as change in coronary flow at 10 uM measured over 30 mins by electrocardiography (reference value: 0%); format: toxicity, tissue-based, Oryctolagus cuniculus; conditions: 0.5 h
[13] = Cardiotoxicity in Langendorff perfused rabbit heart assessed as change in heart rate at 10 uM measured over 30 mins by electrocardiography (reference value: 0%); format: toxicity, tissue-based, Oryctolagus cuniculus; conditions: 0.5 h
[14] = Oral bioavailability in Sprague-Dawley rat at 15 mg/kg after 24 hrs; format: ADME, organism-based; conditions: in vivo
[15] = Cardiotoxicity in Langendorff perfused rabbit heart assessed as change in PR interval at 10 uM measured over 30 mins by electrocardiography (reference value: 0%); format: toxicity, tissue-based, Oryctolagus cuniculus; conditions: 0.5 h
[16] = Cardiotoxicity in Langendorff perfused rabbit heart assessed as change in QRS interval at 10 uM measured over 30 mins by electrocardiography (reference value: 0%); format: toxicity, tissue-based, Oryctolagus cuniculus; conditions: 0.5 h
[17] = Cardiotoxicity in Langendorff perfused rabbit heart assessed as change in sinus node recovery time at 10 uM measured over 10 mins by electrocardiography (reference value: 0%); format: toxicity, tissue-based, Oryctolagus cuniculus
[18] = Cardiotoxicity in Langendorff perfused rabbit heart assessed as change in QT interval at 10 uM measured over 10 mins by electrocardiography (reference value: 0%); format: toxicity, tissue-based, Oryctolagus cuniculus
[19] = Cardiotoxicity in Langendorff perfused rabbit heart assessed as change in heart rate at 10 uM measured over 20 mins by electrocardiography (reference value: 0%); format: toxicity, tissue-based, Oryctolagus cuniculus
[20] = Drug concentration in Sprague-Dawley rat liver at 15 mg/kg, po after 24 hrs; format: ADME, organism-based; conditions: read-out: Drug uptake
[21] = Cardiotoxicity in Langendorff perfused rabbit heart assessed as change in QRS interval at 10 uM measured over 10 mins by electrocardiography (reference value: 0%); format: toxicity, tissue-based, Oryctolagus cuniculus
[22] = Cardiotoxicity in Langendorff perfused rabbit heart assessed as change in PR interval at 10 uM measured over 10 mins by electrocardiography (reference value: 0%); format: toxicity, tissue-based, Oryctolagus cuniculus
[23] = Cardiotoxicity in Langendorff perfused rabbit heart assessed as change in QRS interval at 10 uM measured over 20 mins by electrocardiography (reference value: 0%); format: toxicity, tissue-based, Oryctolagus cuniculus
[24] = Clearance in Sprague-Dawley rat at 5 mg/kg, iv after 24 hrs; format: ADME, organism-based; conditions: in vivo
[25] = AUC in Sprague-Dawley rat at 15 mg/kg, po after 24 hrs; format: ADME, organism-based; set-up: time < 24 hr, dose 15 mg/kg, route oral; conditions: in vivo
[26] = Half life in Sprague-Dawley rat at 15 mg/kg, po after 24 hrs; format: ADME, organism-based; conditions: in vivo
[27] = Cardiotoxicity in Langendorff perfused rabbit heart assessed as change in sinus node recovery time at 10 uM measured over 30 mins by electrocardiography (reference value: 0%); format: toxicity, tissue-based, Oryctolagus cuniculus; conditions: 0.5 h
[28] = Clearance in rat at 5 mg/kg, iv or 15 mg/kg, po; format: ADME, organism-based; conditions: in vivo
[29] = Oral bioavailability in rat at 15 mg/kg; format: ADME, organism-based; conditions: in vivo
[30] = Drug concentration in Sprague-Dawley rat liver at 15 mg/kg, po after 6 hrs; format: ADME, organism-based; conditions: read-out: Drug uptake
[31] = AUC in Sprague-Dawley rat at 15 mg/kg, po after 6 hrs; format: ADME, organism-based; set-up: dose 15 mg/kg, time < 6 hr, route oral; conditions: in vivo
[32] = AUC in Sprague-Dawley rat at 5 mg/kg, iv after 6 hrs; format: ADME, organism-based; set-up: time < 6 hr, dose 5 mg/kg, route intravenous; conditions: in vivo
[33] = Drug concentration in Sprague-Dawley rat liver at 5 mg/kg, iv after 6 hrs; format: ADME, organism-based; conditions: read-out: Drug uptake
[34] = Clearance in Sprague-Dawley rat at 5 mg/kg, iv after 6 hrs; format: ADME, organism-based; conditions: in vivo

C=Cc1cc2cc([C@]3(OC)C[C@@H](C(=O)N[C@]4(C(=O)NS(=O)(=O)C5CC5)C[C@H]4C=C)N(C(=O)[C@@H](NC(=O)OC(C)(C)C)C(C)(C)C)C3)ccc2cc1OC
half-life [1]: 0.6 h

COc1cc2ccc3cc2cc1CCCC(C)(C)CCOC(=O)N[C@@H](C(C)(C)C)C(=O)N1C[C@@]3(OC)C[C@H]1C(=O)N[C@]1(C(=O)NS(=O)(=O)C2CC2)C[C@H]1C1CC1
Activity [2]: 16% | AUC at 24 h [3]: 29 µM·h | Activity [4]: 5% | Activity [5]: 43% | half-life [6]: 9.6 h | Activity [7]: 0% | concentration at 24 h [8]: 100 µM | Activity [9]: 0% | Activity [10]: 14% | Activity [11]: 0% | Activity [12]: -10% | Activity [13]: -16% | bioavailability [14]: 100% | Activity [15]: 0% | Activity [16]: 31% | Activity [17]: 3% | Activity [18]: -4% | Activity [19]: -5% | concentration at 24 h [20]: 85 µM | Activity [21]: 17% | Activity [22]: 4% | Activity [23]: 31% | clearance [24]: 3.5 mL/min/kg | AUC at 24 h [25]: 87 µM·h | half-life [1]: 1.27 h | half-life [26]: 3.9 h

C=C[C@@H]1C[C@]1(NC(=O)[C@@H]1C[C@@](OC)(c2ccc3cc(OC)ccc3c2)CN1C(=O)[C@@H](NC(=O)OC(C)(C)C)C(C)(C)C)C(=O)NS(=O)(=O)C1CC1
half-life [1]: 0.35 h

CO[C@@]12C[C@@H](C(=O)N[C@]3(C(=O)NS(=O)(=O)C4CC4)C[C@H]3C3CC3)N(C1)C(=O)[C@H](C(C)(C)C)NC(=O)OCCCCCOc1ccc3ccc2cc3c1
AUC at 24 h [3]: 7.2 µM·h | half-life [6]: 4.6 h | concentration at 24 h [8]: 45 µM | bioavailability [14]: 16% | concentration at 24 h [20]: 31 µM | clearance [24]: 19 mL/min/kg | AUC at 24 h [25]: 3.6 µM·h | half-life [1]: 0.65 h | half-life [26]: 4.2 h

C=C[C@@H]1C[C@]1(NC(=O)[C@@H]1C[C@]2(OC)CN1C(=O)[C@H](C(C)(C)C)NC(=O)OCC(C)(C)CCCCc1cc3cc2ccc3cc1OC)C(=O)NS(=O)(=O)C1CC1
half-life [1]: 0.967 h

COc1cc2ccc3cc2cc1CCCCC(C)(C)COC(=O)N[C@@H](C(C)(C)C)C(=O)N1C[C@@]3(OC)C[C@H]1C(=O)N[C@]1(C(=O)NS(=O)(=O)C2CC2)C[C@H]1C1CC1
half-life [1]: 1.38 h

COc1cc2ccc3cc2cc1CCCCCCOC(=O)N[C@@H](C(C)(C)C)C(=O)N1C[C@@]3(OC)C[C@H]1C(=O)N[C@]1(C(=O)NS(=O)(=O)C2CC2)C[C@H]1C1CC1
Activity [2]: 6% | AUC at 24 h [3]: 57 µM·h | Activity [4]: -2% | Activity [5]: 18% | half-life [6]: 9.5 h | Activity [7]: 7% | Activity [9]: 10% | Activity [10]: 21% | Activity [11]: 9% | Activity [12]: 19% | Activity [13]: -13% | bioavailability [14]: 34% | Activity [15]: 18% | Activity [16]: 43% | Activity [17]: 4% | Activity [18]: 7% | Activity [19]: -5% | Activity [21]: 10% | Activity [22]: 2% | Activity [23]: 32% | clearance [24]: 2 mL/min/kg | Activity [27]: 19% | AUC at 24 h [25]: 59 µM·h | half-life [1]: 1.65 h | half-life [26]: 5.3 h

C=C[C@@H]1C[C@]1(NC(=O)[C@@H]1C[C@@H](Oc2ncc(OC)c3ccc(Cl)cc23)CN1C(=O)[C@@H](NC(=O)OC(C)(C)C)C(C)(C)C)C(=O)NS(=O)(=O)C1CC1
clearance [28]: 38 mL/min/kg | bioavailability [29]: 12%

C=C[C@@H]1C[C@]1(NC(=O)[C@@H]1C[C@]2(OC)CN1C(=O)[C@H](C(C)(C)C)NC(=O)OCCCCCCc1cc3cc2ccc3cc1OC)C(=O)NS(=O)(=O)C1CC1
concentration at 6 h [30]: 108 µM | AUC at 6 h [31]: 27 µM·h | AUC at 6 h [32]: 90 µM·h | concentration at 6 h [33]: 95 µM | clearance [34]: 1.2 mL/min/kg | half-life [1]: 0.417 h

COc1cc2ccc3cc2cc1OCCCN(C1CC1)CCOC(=O)N[C@@H](C(C)(C)C)C(=O)N1C[C@@]3(OC)C[C@H]1C(=O)N[C@]1(C(=O)NS(=O)(=O)C2CC2)C[C@H]1C1CC1
AUC at 24 h [3]: 33 µM·h | half-life [6]: 20 h | bioavailability [14]: 18% | clearance [24]: 3.5 mL/min/kg | AUC at 24 h [25]: 18 µM·h | half-life [1]: 0.717 h | half-life [26]: 8 h

COC(=O)N1CCCOc2cc3cc(ccc3cc2OC)[C@]2(OC)C[C@@H](C(=O)N[C@]3(C(=O)NS(=O)(=O)C4CC4)C[C@H]3C3CC3)N(C2)C(=O)[C@H](C(C)(C)C)NC(=O)OCC1
half-life [1]: > 2 h

C=C[C@@H]1C[C@]1(NC(=O)[C@@H]1C[C@]2(OC)CN1C(=O)[C@H](C(C)(C)C)NC(=O)OCCCCCOc1ccc3ccc2cc3c1)C(=O)NS(=O)(=O)C1CC1
half-life [1]: 0.367 h

C=C[C@@H]1C[C@]1(NC(=O)[C@@H]1C[C@]2(OC)CN1C(=O)[C@H](C(C)(C)C)NC(=O)OCCCCCCCCc1cc3cc2ccc3cc1OC)C(=O)NS(=O)(=O)C1CC1
half-life [1]: 0.55 h
